Experimental data: patent publication US9604945B2, “Sydnonimines-specific dopamine reuptake inhibitors and their use in treating dopamine related disorders” (priority 2007, dated 2017)

What was measured:
[1] = Brain drug concentration by different routes of administration; assay type: in vivo, C57BL/6 mice; details: for Brain Drug Concentration: time 0 (pre-dose); for concentration at 5 min / concentration at 15 min / concentration at 30 min / concentration at 60 min / concentration at 120 min / concentration at 240 min / concentration at 480 min: C57BL/6, mouse, brain
Procedure: The following materials and methods are provided to facilitate the practice of Example 9, in which drug concentration in certain biological samples were assessed using different routes of administration.
Parameters Used in Dosing and Drug Administration of the Compound of Example 3:
Adult C57BL/6 mice (preferred 16 weeks old).
Three mice per time point. If all three routes are conducted in same day, one group of pre-dose is efficient.
In the studies using adult C57BL/6 mice (preferably approximately 16 weeks old), dosing and drug administration parameters for the compound of Example 3 were explored. Clearly, the compound is suitable for oral administration and lasts in the plasma up to 2-3 hours.

male mice [2] = assay: Accelerating rotarod assay; assay type: in vivo, mouse; details: 10 and 90 mg/kg, FIG. 11
Procedure: Rotarod assays were also performed using the experimental protocol and design set forth below. Individually housed male mice aged 8-12 weeks were used for this experiment. Mice were maintained on a reverse L:D/12 p.m.: 12 a.m. cycle in a barrier facility with food and water available ad libitum. Testing occurred towards the end of the light cycle between 6-12 a.m. Mice were acclimated to the testing room for at least 30 minutes.
The assay was carried out using four EzRod test chambers kept in a laminar hood for testing. For the accelerating rotarod paradigm, mice were given 10 trials with the maximum duration of 3 minute and a 30-second intertrial interral (ITI). Each mouse was placed on the EZRod machines and the latency to fall was recorded for all trials. If the mouse fell or 3 minutes elapsed, the mouse was left in the bottom of the EzRod test chamber for 30 seconds before starting the next trial.
The latency to fall was compared between the two groups by analysis of variance (ANOVA) with repeated measures.

male Swiss Webster mice = assay: Spontaneous locomotor activity dose response study (NIDA MDD protocol); assay type: in vivo, mouse; details: 3, 10, 30 or 100 mg/kg IP, FIGS. 4 and 5
Procedure: A dose response study was conducted of locomotor depression induced by the compound of Example 3, according to NIDA's Medication Development Division (MDD) locomoter activity studies standard protocol. The study was conducted using 40 Digiscan locomotor activity testing chambers (40.5×40.5×30.5 cm) housed in sets of two, within sound attenuating chambers. A panel of infrared beams (16 beams) and corresponding photodetectors were located in the horizontal direction along the sides of each activity chamber. A 7.5 W incandescent light above each chamber provided dim illumination. Fans provided an 80 dB ambient noise level within the chamber. Separate groups of 8 non-habituated male Swiss Webster mice (Hsd:ND4, aged 2-3 months) were injected via the intraperitoneal (IP) route with either vehicle (2% methyl cellulose) or the compound of Example 3, above, (3, 10, 30 or 100 mg/kg) twenty minutes prior to locomotor activity testing. Just piro to placement in the apparatus, all mice received a saline injection IP. In all studies, horizontal activity (interruption of photocell beams) was measured for 1 hour within 10 minute periods. Testing was conducted with one mouse per activity chamber.
The same protocol was followed in a study of locomotor depression induced by the compound of Example 6. […]

male mice [3] = assay: Novel environment-induced feeding suppression (NEIFS); assay type: in vivo, mouse; details: 10 and 90 mg/kg, FIG. 10
Procedure: Novel environment-induced feeding suppression (NEIFS) testing was also performed. Individually housed male mice aged 8-12 weeks are used for this testing. Mice were maintained no a reverse L:D/12 p.m.:12 a.m. cycle in a barrier facility with food and water available ad libitum. Testing occurred towards the end of the light cycle between 6-12 a.m. The mice were acclimated to the testing room for at least 30 minutes.
Days 1, 2, 3 and 5 (Home cage): A Petri dish containing crushed Graham crackers was placed in the farthest corner from each mouse in its own home cage. The time to approach (defined as nose of the mouse directed at or within 1 cm of the dish) and consume (eat, not pick up) the crackers was recorded immediately following the placement of the dish into home cage.
Day 4 (Novel environment): The procedure followed was the same as described for home cage; however, on day 4 the mouse was placed in a new cage with bedding (novel environment) for the duration of the experiment. The mice were subsequently returned to their respective home cages for day 5 testing. The remaining crackers and Petri dish were disposed of at the end of the experiment for each mouse.

mice = assay: Irwin behavioral battery; assay type: in vivo, mouse; details: FIGS. 7A-7C
Procedure: To further characterize the pharmacological effects of these compounds, Irwin behavioral battery testing was performed.
Testing occurred towards the end of the light cycle between 8-11 a.m. (lights go off at 11:00 a.m.). The mice were acclimated to the testing room for at least 30 minutes. The Irwin test equipment (timer, viewing jar and support, open arena, grid, ruler, sound box, wood stocks, kimwipes box) was placed under a laminar flow hood. The mouse was first placed in the viewing jar for five (5) minutes and the following parameters were scored:
At the end of the 5-minute period, the viewing jar with the muose in it was transferred to the arena, where the jar was disassembled and the mouse released into the arena. The mouse was not handled by the experimenter. The following parameters were scored in the arena in the following order:
Then the mouse was picked up by its tail and kept above the arena to score the following set of parameters:
The mouse was then placed in supine restraint to score the below parameters in the following order:
The final three parameters were scored with the mouse above or in the arena: […]

Compound: Cc1ccc(C[n+]2[cH-]/c(=N\C(=O)Nc3ccccc3)on2)cc1 [Example 3, N-phenylcarbamoyl-3-(p-methyl-benzyl)-sydnonimine]
- Brain Drug Concentration ([1]; 10 mg/kg (IP)): 0.00 ng/mL
- Brain Drug Concentration ([1]; 10 mg/kg (IV)): 95.10 ng/mL
- Brain Drug Concentration ([1]; 10 mg/kg (PO)): 107.55 ng/mL
- Brain Drug Concentration ([1]; 30 mg/kg (PO)): 123.97 ng/mL
- concentration at 5 min ([1]; intraperitoneal, 10 mg/kg (IP)): 1460 ng/mL
- concentration at 15 min ([1]; intraperitoneal, 10 mg/kg (IP)): 374 ng/mL
- concentration at 30 min ([1]; intraperitoneal, 10 mg/kg (IP)): 242 ng/mL
- concentration at 60 min ([1]; intraperitoneal, 10 mg/kg (IP)): 190 ng/mL
- concentration at 120 min ([1]; intraperitoneal, 10 mg/kg (IP)): 70.2 ng/mL
- concentration at 240 min ([1]; intraperitoneal, 10 mg/kg (IP)): 143 ng/mL
- concentration at 480 min ([1]; intraperitoneal, 10 mg/kg (IP)): 123 ng/mL
- concentration at 5 min ([1]; 10 mg/kg (IV)): 2310 ng/mL
- concentration at 15 min ([1]; 10 mg/kg (IV)): 1720 ng/mL
- concentration at 30 min ([1]; 10 mg/kg (IV)): 1140 ng/mL
- concentration at 60 min ([1]; 10 mg/kg (IV)): 464 ng/mL
- concentration at 120 min ([1]; 10 mg/kg (IV)): 78.7 ng/mL
- concentration at 240 min ([1]; 10 mg/kg (IV)): 178 ng/mL
- concentration at 480 min ([1]; 10 mg/kg (IV)): 49 ng/mL
- concentration at 5 min ([1]; 10 mg/kg (PO)): 418 ng/mL
- concentration at 15 min ([1]; 10 mg/kg (PO)): 298 ng/mL
- concentration at 30 min ([1]; 10 mg/kg (PO)): 150 ng/mL
- concentration at 60 min ([1]; 10 mg/kg (PO)): 158 ng/mL
- concentration at 120 min ([1]; 10 mg/kg (PO)): 165 ng/mL
- concentration at 240 min ([1]; 10 mg/kg (PO)): 97.5 ng/mL
- concentration at 480 min ([1]; 10 mg/kg (PO)): 163 ng/mL
- concentration at 5 min ([1]; 30 mg/kg (PO)): 869 ng/mL
- concentration at 15 min ([1]; 30 mg/kg (PO)): 845 ng/mL
- concentration at 30 min ([1]; 30 mg/kg (PO)): 627 ng/mL
- concentration at 60 min ([1]; 30 mg/kg (PO)): 218 ng/mL
- concentration at 120 min ([1]; 30 mg/kg (PO)): 203 ng/mL
- concentration at 240 min ([1]; 30 mg/kg (PO)): 183 ng/mL
- concentration at 480 min ([1]; 30 mg/kg (PO)): 168 ng/mL
- Brain penetration ([1]; administered orally or via intravenous administration): reaches the brain
- Rotarod performance (male mice [2]): did not affect rotarod performance
- Effect on spontaneous locomotor activity (male Swiss Webster mice): dose dependent suppression of spontaneous locomotor activity
- Anxiolytic effect in novel environment induced feeding suppression (male mice [3]): induced measurable anxiolytic effects
- Behavioral effects in Irwin Behavioral Battery (spontaneous activity, grip strength, limb tone) (mice): induced significant behavioral effects
